In data set [1] the test system is S. aureus clinical strain AD3. Briefly: MIC and MBC determination (broth microdilution). Format: cell-based. As to conditions: Staphylococcus aureus; for MIC: first value of cell; for MBC: second value of cell. How it is done:
(§1) The MIC values of Z33 against MRSA ATCC 43300 and S. aureus clinical isolates were measured according to the broth microdilution guidelines provided by the Clinical and Laboratory Standards Institute (CLSI). S. aureus ATCC 29213 was used as the quality control strain, and the quality control range was referred to the CLSI. The MIC value is defined as the lowest concentration of the compounds with no visible growth of bacteria. The MIC assay was independently repeated three times.
(§2) The MBC values of antibacterial agents were measured after incubation at 37 °C for 24 h. Briefly, 100 µL of bacterial solution from the three wells behind the corresponding well of MIC was absorbed and spread on the Mueller–Hinton Agar (MHA). The MBC refers to the lowest concentration corresponding to the amount of colony-forming unit (CFU) ≤ 5 on the medium after 18~24 h of incubation at 37 °C.

In data set [2] the test system is S. aureus ATCC 29213. The data set can be described thus: MIC and MBC determination (broth microdilution). Format: cell-based. The settings on record: Staphylococcus aureus; for MIC: ATCC29213, first value of cell; for MBC: ATCC29213, second value of cell. The procedure: as §1, §2
The test system of data set [3] is S. aureus clinical strain 144. The data set can be described thus: MIC and MBC determination (broth microdilution). Format: cell-based. The settings on record: Staphylococcus aureus; for MIC: first value of cell; for MBC: second value of cell. How it is done: as §1, §2
Background: Dilution methods test growth across graded concentrations, often in twofold steps.

Data set [4] deals with MRSA ATCC 43300. The data set can be described thus: MIC and MBC determination (broth microdilution). The format is cell-based. As to conditions: Staphylococcus aureus; for MIC: first value of MIC/MBC cell; for MBC: second value of MIC/MBC cell. The procedure:
as §1, §2

The next data set concerns RAW264.7 cells. The data set can be described thus: Cytotoxicity test (MTT assay). Format: cell-based. As to conditions: concentrations less than 5 μg/mL, 24 h, MTT. How it is done: (§3) To assess the effects of tiamulin and Z33 on the viability of RAW264.7 macrophages, the MTT assay was performed according to previous reports. […] After discarding the MTT solution, DMSO (150 μL) was added to each well to dissolve all crystals. OD490nm was recorded using EnSight Multimode Plate Reader (PerkinElmer, […], USA).

Data set [5] is described as follows: Cytotoxicity test (MTT assay). The format is cell-based. As to conditions: mouse, RAW264.7 macrophages, RAW264.7, MTT, tested up to 20 μg/mL. How it is done:
as §3

A further data set deals with four S. aureus strains. Briefly: microbe, parasite or virus in culture. The format is cell-based, Staphylococcus aureus. The procedure: To assess the propensity for the development of bacterial resistance, the ability of Z33 and tiamulin to induce resistance to four strains were tested, respectively. Serial passages at 37 °C were performed daily in BHI broth containing sub-MIC concentration (1/4 MIC) of Z33 and tiamulin. The MIC values were daily determined and recorded by the broth microdilution method. A duration of 13 passages was performed in every case.

For the next data set, the target named is T1, CYP3A4 (Homo sapiens, UniProt P08684).
T1 construct: 40 µL of the human liver microsomal enzyme (final concentration is 0.5 g/L); tissue Research Institute for Liver Diseases Co., Ltd. (Shanghai, China); host or cells: human liver microsomes
Briefly: CYP450 inhibition assay, human liver microsomes, testosterone probe. Format: in vitro ADME. The procedure:
(§4) The inhibition effect of Z33 and tiamulin on the human liver microsomal enzyme was determined as described in the literature with some modifications. Experiments were performed in 96-well plates with a final incubation volume of 100 μL per well. 40 µL of the human liver microsomal enzyme (final concentration is 0.5 g/L), 20 µL of probe substrate (final concentration of testosterone and chlorzoxazone is 20 µmol/L), and 20 µL of test drug were mixed in each well. After preincubation at 37 °C for 5 min, the reactions were started by the addition of 20 μL of NADPH (final concentration is 1 mmol/L). Depending on the substrate, the chlorzoxazone and testosterone groups were incubated at 37 °C for 25 min and 10 min, respectively. The reaction was terminated by adding 100 µL of acetonitrile, and then the supernatant was centrifuged to analyse by LC-MS/MS.
(Liver microsomes are vesicles of endoplasmic reticulum, rich in cytochrome P450 enzymes.)

For data set [6], the system named is S. aureus clinical strain AD3. The data set can be described thus: Determination of MPC (mutant prevention concentration). Format: cell-based, Staphylococcus aureus. How it is done:
(§5) The drug-resistant tendency suppression potential of Z33 and tiamulin was determined as described with minor modifications. In the test, for each S. aureus strain, 4 mL of overnight cultures were inoculated into 100 mL of fresh BHI broth and then incubated for 4.5 h at 37 °C with shaking (210 rpm). Cultures were centrifuged at 5000 r/min for 10 min. The supernatant was discarded and resuspended in the 4 mL of saline to achieve a bacterial density of ~3 × 10^10 CFU/mL. In total, 100 μL of each culture was spread onto MHA containing various concentrations of Z33 and tiamulin. […] Plates were incubated at 37 °C for a total of 72 h and recorded every 24 h for the appearance of colonies. MPC was defined as the lowest concentration with no growth of colonies on the agar plate. MPC was carried out in triplicate.

The test system of data set [7] is S. aureus ATCC 29213. The data set is described as above. Format: cell-based, Staphylococcus aureus. The procedure: as §5
In data set [8] the test system is S. aureus clinical strain 144. The description is as above. Format: cell-based, Staphylococcus aureus. The procedure: as §5
The subject of data set [9] is MRSA ATCC 43300. The data set is described as above. The format is cell-based, Staphylococcus aureus. How it is done: as §5
The target in a further data set is T2, CYP2E1 (Homo sapiens, UniProt P05181).
T2 construct: 40 µL of the human liver microsomal enzyme (final concentration is 0.5 g/L); tissue Research Institute for Liver Diseases Co., Ltd. (Shanghai, China); host or cells: human liver microsomes
Briefly: CYP450 inhibition assay, human liver microsomes, chlorzoxazone probe. The format is in vitro ADME. As to conditions: human liver microsomes. How it is done:
as §4

In data set [10] the test system is MRSA ATCC 43300. Briefly: Neutropenic mouse thigh infection model. The format is in vivo, mice. The settings on record: 20 mg/kg intravenous. How it is done:
The neutropenic mouse thigh infection model was used to determine the in vivo antibacterial activity of Z33 [23]. Briefly, female mice were rendered neutropenic (neutrophil count ≤ 100/mm^3) via intraperitoneal injection of cyclophosphamide on day 4 (150 mg/kg) and day 1 (100 mg/kg) before infection. MRSA ATCC 43300 cells were collected in the logarithmic phase and resuspended in 0.9% saline. The thigh infection model was established by injection of 100 μL of MRSA suspension (10^7 CFU/mL) into the posterior thighs of mice. After 2 h post-infection, mice were intravenously injected with tiamulin and Z33 at a dose of 20 mg/kg, and the untreated groups were administrated with an equal amount of saline. Mice were euthanized after treatment of 22 h, thigh tissue was aseptically collected, weighed, homogenized, and serially diluted in saline, respectively. CFU counts were determined by the flat colony counting method.

Converted amounts (≈) assume the structure as drawn. Read-outs that look alike come from different tables or passages of the source.

We go through two molecules from publication PMC9370166, “In Vitro and In Vivo Antibacterial Activity, Toxicity and Resistance Analysis of Pleuromutilin Derivative Z33 against Methicillin-Resistant Staphylococcus aureus” (Molecules, 2022).

Usually MBC stands for the lowest tested concentration that kills the bacteria rather than only halting them. As a reminder, the IC50 is the concentration needed to halve the response being measured.

T2 sequence (P05181 whole entry): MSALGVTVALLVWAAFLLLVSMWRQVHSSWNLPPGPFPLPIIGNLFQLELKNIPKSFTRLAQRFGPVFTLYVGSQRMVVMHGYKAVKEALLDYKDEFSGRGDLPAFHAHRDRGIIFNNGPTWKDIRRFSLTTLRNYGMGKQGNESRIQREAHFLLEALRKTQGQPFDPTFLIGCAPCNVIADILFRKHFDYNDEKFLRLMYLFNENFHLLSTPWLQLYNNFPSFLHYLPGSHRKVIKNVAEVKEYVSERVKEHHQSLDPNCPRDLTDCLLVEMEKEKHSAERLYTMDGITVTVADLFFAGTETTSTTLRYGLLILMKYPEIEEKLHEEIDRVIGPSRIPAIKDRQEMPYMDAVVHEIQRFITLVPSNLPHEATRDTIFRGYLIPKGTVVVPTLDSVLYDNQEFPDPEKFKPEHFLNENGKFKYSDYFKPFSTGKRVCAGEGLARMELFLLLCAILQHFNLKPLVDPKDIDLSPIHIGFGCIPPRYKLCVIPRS
T1 sequence (P08684 whole entry): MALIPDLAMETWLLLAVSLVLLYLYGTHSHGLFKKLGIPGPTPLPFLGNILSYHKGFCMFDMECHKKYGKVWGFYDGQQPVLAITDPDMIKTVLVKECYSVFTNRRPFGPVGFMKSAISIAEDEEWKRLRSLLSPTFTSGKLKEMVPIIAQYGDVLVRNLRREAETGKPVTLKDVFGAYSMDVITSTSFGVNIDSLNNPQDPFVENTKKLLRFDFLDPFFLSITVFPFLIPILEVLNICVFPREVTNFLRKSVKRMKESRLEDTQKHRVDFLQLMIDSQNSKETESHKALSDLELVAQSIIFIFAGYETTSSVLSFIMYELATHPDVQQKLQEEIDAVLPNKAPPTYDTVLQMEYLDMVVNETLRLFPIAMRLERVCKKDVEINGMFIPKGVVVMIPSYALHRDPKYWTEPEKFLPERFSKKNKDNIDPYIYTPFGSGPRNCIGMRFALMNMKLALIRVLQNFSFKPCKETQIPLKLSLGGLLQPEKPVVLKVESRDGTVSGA

On to `C=C[C@]1(C)C[C@@H](OC(=O)CSCCN(CC)CC)[C@]2(C)[C@H](C)CC[C@]3(CCC(=O)[C@H]32)[C@@H](C)[C@@H]1O` [tiamulin, reference compound], for which the MIC is 1 µg/mL (≈ 2.03 µM) in data set [1]; 0.5 µg/mL (≈ 1.01 µM) in the data set on S. aureus ATCC 29213 [2]; 0.5 µg/mL (≈ 1.01 µM) in [3]; 0.5 µg/mL (≈ 1.01 µM) against MRSA ATCC 43300 [4]; 2 to 8 µg/mL (≈ 4.05 to 16.2 µM) with four S. aureus strains (Staphylococcus aureus, read-out: MICs of resistant clones). The MBC stood at 2 µg/mL (≈ 4.05 µM) in [1], 1 µg/mL (≈ 2.03 µM) against S. aureus ATCC 29213 [2], 2 µg/mL (≈ 4.05 µM) in [3] and 1 µg/mL (≈ 2.03 µM) against MRSA ATCC 43300 [4]. Besides, the “cytotoxicity on RAW264.7 cells” value with RAW264.7 cells is “No significant cytotoxicity”. Also, the IC50 at 24 h in data set [5] is not below 20 µg/mL. For the same molecule, the “fold increase in MICs” value with four S. aureus strains (after 13 passages) is given as approximately 32 fold. Further, the “passages after which resistance developed (≥ 4-fold MIC increase)” value with four S. aureus strains (four S. aureus strains) was found to be 3 passages. Also, the IC50 against CYP3A4 was 1600 nM; at CYP2E1 (Figure 6, read-out: IC50 CYP2E1 (value in plot key)), 184 nM; at CYP2E1 (bound given in text, read-out: IC50 CYP2E1), less than 250 nM. Further, the MPC is 2 µg/mL in data set [6], 1 µg/mL in the data set on S. aureus ATCC 29213 [7], 1 µg/mL in [8] and 1 µg/mL in the data set on MRSA ATCC 43300 [9]. The “MRSA inoculum in the thigh muscle” value in the data set with MRSA ATCC 43300 [10] (after treatment for 24 h) is 7.655 ± 0.067 log10 CFU/g. Besides, the “reduction of bacterial load in the thigh muscle” value in the data set on MRSA ATCC 43300 [10] (versus untreated group) was 0.771 log10 CFU/g.
Turning to `C=C[C@]1(C)C[C@@H](OC(=O)CSC(C)(C)CNC(=O)[C@H](N)C(C)C)[C@]2(C)[C@H](C)CC[C@]3(CCC(=O)[C@H]32)[C@@H](C)[C@@H]1O` [valnemulin], the MIC (in data set [1]; against S. aureus ATCC 29213 [2]; in data set [3]; in the data set with MRSA ATCC 43300 [4]) was 0.125 µg/mL (≈ 0.221 µM) throughout. Moreover, the MBC turned out to be 0.125 µg/mL (≈ 0.221 µM) in data set [1], 0.125 µg/mL (≈ 0.221 µM) against S. aureus ATCC 29213 [2], 0.25 µg/mL (≈ 0.443 µM) in data set [3] and 0.125 µg/mL (≈ 0.221 µM) with MRSA ATCC 43300 [4].
